From US10966978B2, “Dose and regimen for HDM2-p53 interaction inhibitors” (Novartis AG, priority 2016, dated 2021)
Where two headings read alike, the source gives them in different places.

Tested on: patients with advanced TP53 wild-type (WT) leukemias

COc1ncc(-c2nc3c(n2C(C)C)[C@H](c2ccc(Cl)cc2)N(c2cc(Cl)cn(C)c2=O)C3=O)c(OC)n1 [HDM201, (S)-5-(5-Chloro-1-methyl-2-oxo-1,2-dihydro-pyridin-3-yl)-6-(4-chloro-phenyl)-2-(2,4-dimethoxy-pyrimidin-5-yl)-1-isopropyl-5,6-dihydro-1H-pyrrolo[3,4-d]imidazol-4-one]
AE: Fatigue (Regimen 1A N = 16, All Grades): 4 (25.0) n (%)
AE: Febrile Neutropenia (Regimen 1A N = 16, All Grades): 4 (25.0) n (%)
AE: Gamma-Glutamyltransferase Increased (Regimen 1A N = 16, All Grades): 2 (12.5) n (%)
AE: General Physical Health Deterioration (Regimen 1A N = 16, All Grades): 2 (12.5) n (%)
AE: Gingival Bleeding (Regimen 1A N = 16, All Grades): 2 (12.5) n (%)
AE: Graft Versus Host Disease (Regimen 1A N = 16, All Grades): 1 (6.3) n (%)
AE: Haemoglobin Decreased (Regimen 1A N = 16, All Grades): 1 (6.3) n (%)
AE: Headache (Regimen 1A N = 16, All Grades): 1 (6.3) n (%)
AE: Hyperbilirubinaemia (Regimen 1A N = 16, All Grades): 1 (6.3) n (%)
AE: Hyperglycaemia (Regimen 1A N = 16, All Grades): 1 (6.3) n (%)
AE: Hyperkalaemia (Regimen 1A N = 16, All Grades): 0 n (%)
AE: Hyperphosphataemia (Regimen 1A N = 16, All Grades): 1 (6.3) n (%)
AE: Hyperuricaemia (Regimen 1A N = 16, All Grades): 2 (12.5) n (%)
AE: Hypoalbuminaemia (Regimen 1A N = 16, All Grades): 1 (6.3) n (%)
AE: Hypocalcaemia (Regimen 1A N = 16, All Grades): 2 (12.5) n (%)
AE: Hypokalaemia (Regimen 1A N = 16, All Grades): 0 n (%)
AE: Hypomagnesaemia (Regimen 1A N = 16, All Grades): 1 (6.3) n (%)
AE: Hyponatraemia (Regimen 1A N = 16, All Grades): 1 (6.3) n (%)
AE: Hypophosphataemia (Regimen 1A N = 16, All Grades): 2 (12.5) n (%)
AE: Hypotension (Regimen 1A N = 16, All Grades): 1 (6.3) n (%)
AE: Infection (Regimen 1A N = 16, All Grades): 1 (6.3) n (%)
AE: Infective Glossitis (Regimen 1A N = 16, All Grades): 0 n (%)
AE: Iron Overload (Regimen 1A N = 16, All Grades): 1 (6.3) n (%)
AE: Leukopenia (Regimen 1A N = 16, All Grades): 2 (12.5) n (%)
AE: Lip Oedema (Regimen 1A N = 16, All Grades): 1 (6.3) n (%)
AE: Lipase Increased (Regimen 1A N = 16, All Grades): 3 (18.8) n (%)
AE: Macular Oedema (Regimen 1A N = 16, All Grades): 0 n (%)
AE: Malaise (Regimen 1A N = 16, All Grades): 1 (6.3) n (%)
AE: Mouth Haemorrhage (Regimen 1A N = 16, All Grades): 2 (12.5) n (%)
AE: Nausea (Regimen 1A N = 16, All Grades): 10 (62.5) n (%)
AE: Neutropenia/Neutrophil Count Decreased (Regimen 1A N = 16, All Grades): 6 (37.5) n (%)
AE: Oedema (Regimen 1A N = 16, All Grades): 1 (6.3) n (%)
AE: Oral Disorder (Regimen 1A N = 16, All Grades): 1 (6.3) n (%)
AE: Pain In Extremity (Regimen 1A N = 16, All Grades): 1 (6.3) n (%)
AE: Pancytopenia (Regimen 1A N = 16, All Grades): 0 n (%)
AE: Pneumonia (Regimen 1A N = 16, All Grades): 1 (6.3) n (%)
AE: Pollakiuria (Regimen 1A N = 16, All Grades): 1 (6.3) n (%)
AE: Pyrexia (Regimen 1A N = 16, All Grades): 3 (18.8) n (%)
AE: Rash (Regimen 1A N = 16, All Grades): 1 (6.3) n (%)
AE: Rash Erythematous (Regimen 1A N = 16, All Grades): 1 (6.3) n (%)
AE: Rash Papular (Regimen 1A N = 16, All Grades): 1 (6.3) n (%)
AE: Rectal Haemorrhage (Regimen 1A N = 16, All Grades): 0 n (%)
AE: Renal Failure (Regimen 1A N = 16, All Grades): 0 n (%)
AE: Skin Exfoliation (Regimen 1A N = 16, All Grades): 1 (6.3) n (%)
AE: Stomatitis (Regimen 1A N = 16, All Grades): 1 (6.3) n (%)
AE: Subarachnoid Haemorrhage (Regimen 1A N = 16, All Grades): 1 (6.3) n (%)
AE: Thrombocytopenia/Platelet Count Decreased (Regimen 1A N = 16, All Grades): 8 (50.0) n (%)
AE: Total (Regimen 1A N = 16, All Grades): 15 (93.8) n (%)
AE: Tumour Lysis Syndrome (Regimen 1A N = 16, All Grades): 7 (43.8) n (%)
AE: Vomiting (Regimen 1A N = 16, All Grades): 5 (31.3) n (%)
AE: Weight Decreased (Regimen 1A N = 16, All Grades): 1 (6.3) n (%)
AE: White Blood Cell Count Decreased (Regimen 1A N = 16, All Grades): 1 (6.3) n (%)
AE: Abdominal Discomfort (Regimen 1A N = 16, Grade 3/4): 0 n (%)
AE: Abdominal Pain (Regimen 1A N = 16, Grade 3/4): 0 n (%)
AE: Abdominal Pain Upper (Regimen 1A N = 16, Grade 3/4): 0 n (%)
AE: Acute Kidney Injury (Regimen 1A N = 16, Grade 3/4): 0 n (%)
AE: Amylase Increased (Regimen 1A N = 16, Grade 3/4): 0 n (%)
AE: Anaemia (Regimen 1A N = 16, Grade 3/4): 4 (25.0) n (%)
AE: Arthralgia (Regimen 1A N = 16, Grade 3/4): 0 n (%)
AE: Asthenia (Regimen 1A N = 16, Grade 3/4): 0 n (%)
AE: Atrial Fibrillation (Regimen 1A N = 16, Grade 3/4): 0 n (%)
AE: Atypical Pneumonia (Regimen 1A N = 16, Grade 3/4): 0 n (%)
AE: Balanitis Candida (Regimen 1A N = 16, Grade 3/4): 0 n (%)
AE: Blood Alkaline Phosphatase Increased (Regimen 1A N = 16, Grade 3/4): 0 n (%)
AE: Blood Bilirubin Increased (Regimen 1A N = 16, Grade 3/4): 0 n (%)
AE: Blood Creatinine Increased (Regimen 1A N = 16, Grade 3/4): 0 n (%)
AE: Blood Phosphorus Increased (Regimen 1A N = 16, Grade 3/4): 0 n (%)
AE: Blood Uric Acid Increased (Regimen 1A N = 16, Grade 3/4): 1 (6.3) n (%)
AE: Bone Marrow Failure (Regimen 1A N = 16, Grade 3/4): 0 n (%)
AE: C-Reactive Protein Increased (Regimen 1A N = 16, Grade 3/4): 0 n (%)
AE: Cardiac Failure (Regimen 1A N = 16, Grade 3/4): 0 n (%)
AE: Cellulitis (Regimen 1A N = 16, Grade 3/4): 0 n (%)
AE: Chronic Graft Versus Host Disease (Regimen 1A N = 16, Grade 3/4): 1 (6.3) n (%)
AE: Conjunctival Haemorrhage (Regimen 1A N = 16, Grade 3/4): 0 n (%)
AE: Constipation (Regimen 1A N = 16, Grade 3/4): 0 n (%)
AE: Cough (Regimen 1A N = 16, Grade 3/4): 0 n (%)
AE: Cystitis Viral (Regimen 1A N = 16, Grade 3/4): 0 n (%)
AE: Cytomegalovirus Infection (Regimen 1A N = 16, Grade 3/4): 0 n (%)
AE: Decreased Appetite (Regimen 1A N = 16, Grade 3/4): 0 n (%)
AE: Diarrhoea (Regimen 1A N = 16, Grade 3/4): 0 n (%)
AE: Dyspepsia (Regimen 1A N = 16, Grade 3/4): 0 n (%)
AE: Dyspnoea (Regimen 1A N = 16, Grade 3/4): 1 (6.3) n (%)
AE: Epistaxis (Regimen 1A N = 16, Grade 3/4): 0 n (%)
AE: Fatigue (Regimen 1A N = 16, Grade 3/4): 0 n (%)
AE: Febrile Neutropenia (Regimen 1A N = 16, Grade 3/4): 4 (25.0) n (%)
AE: Gamma-Glutamyltransferase Increased (Regimen 1A N = 16, Grade 3/4): 1 (6.3) n (%)
AE: General Physical Health Deterioration (Regimen 1A N = 16, Grade 3/4): 0 n (%)
AE: Gingival Bleeding (Regimen 1A N = 16, Grade 3/4): 0 n (%)
AE: Graft Versus Host Disease (Regimen 1A N = 16, Grade 3/4): 0 n (%)
AE: Haemoglobin Decreased (Regimen 1A N = 16, Grade 3/4): 0 n (%)
AE: Headache (Regimen 1A N = 16, Grade 3/4): 0 n (%)
AE: Hyperbilirubinaemia (Regimen 1A N = 16, Grade 3/4): 0 n (%)
AE: Hyperglycaemia (Regimen 1A N = 16, Grade 3/4): 0 n (%)
AE: Hyperkalaemia (Regimen 1A N = 16, Grade 3/4): 0 n (%)
AE: Hyperphosphataemia (Regimen 1A N = 16, Grade 3/4): 0 n (%)
AE: Hyperuricaemia (Regimen 1A N = 16, Grade 3/4): 1 (6.3) n (%)
AE: Hypoalbuminaemia (Regimen 1A N = 16, Grade 3/4): 0 n (%)
AE: Hypocalcaemia (Regimen 1A N = 16, Grade 3/4): 0 n (%)
AE: Hypokalaemia (Regimen 1A N = 16, Grade 3/4): 0 n (%)
AE: Hypomagnesaemia (Regimen 1A N = 16, Grade 3/4): 0 n (%)
AE: Hyponatraemia (Regimen 1A N = 16, Grade 3/4): 0 n (%)
AE: Hypophosphataemia (Regimen 1A N = 16, Grade 3/4): 2 (12.5) n (%)
AE: Hypotension (Regimen 1A N = 16, Grade 3/4): 0 n (%)
AE: Infection (Regimen 1A N = 16, Grade 3/4): 1 (6.3) n (%)
AE: Infective Glossitis (Regimen 1A N = 16, Grade 3/4): 0 n (%)
